Measurements published in US20240199542A1, “SUBSTITUTED PYRROLIDIN-2-ONES, SALTS THEREOF AND THEIR USE AS HERBICIDALLY ACTIVE SUBSTANCES” (Bayer Aktiengesellschaft, priority 2021, published 2024).

What was measured:
Format in all cases: in vivo
[1] = test system: Amaranthus retroflexus (AMARE); assay: Herbicidal post-emergence action; details: 1280 g/ha, assessed after ca. 3 weeks
Method in brief: (§1)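 Compound applied as spray to single-leaf-stage plants (sandy loam, greenhouse) at 320 or 1280 g/ha; read-out is visual percent kill after ca. 3 weeks, with untreated plants as 0%.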

[2] = test system: Alopecurus myosuroides (ALOMY); assay: Herbicidal pre-emergence action; details: graded after ca. 3 weeks
Method in brief: (§2)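 Sandy loam, seeds covered with soil → compound (WP or EC, +0.5% additive, 600 l water/ha, ≤1280 g/ha) onto covering soil → greenhouse, optimum conditions → visual % damage at ~3 wk vs untreated.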

Avena fatua (AVEFA) [3] = assay: Herbicidal pre-emergence action; details: graded after ca. 3 weeks
Method in brief: as §2

[4] = test system: Cyperus esculentus (CYPES); assay: Herbicidal pre-emergence action; details: 1280 g/ha, graded after ca. 3 weeks
Method in brief: as §2

[5] = test system: Digitaria sanguinalis (DIGSA); assay: Herbicidal pre-emergence action; details: 320 g/ha, graded after ca. 3 weeks
Method in brief: as §2

[6] = test system: Echinochloa crus-galli (ECHCG); assay: Herbicidal pre-emergence action; details: 1280 g/ha, graded after ca. 3 weeks
Method in brief: as §2

[7] = test system: Lolium multiflorum (LOLMU); assay: Herbicidal pre-emergence action; details: 1280 g/ha, graded after ca. 3 weeks
Method in brief: as §2

Lolium rigidum (LOLRI) [8] = assay: Herbicidal pre-emergence action; details: 320 g/ha, graded after ca. 3 weeks
Method in brief: as §2

[9] = test system: Polygonum convolvulus (POLCO); assay: Herbicidal pre-emergence action; details: graded after ca. 3 weeks
Method in brief: as §2

Setaria viridis (SETVI) [10] = assay: Herbicidal pre-emergence action; details: graded after ca. 3 weeks
Method in brief: as §2

Veronica persica (VERPE) = assay: Herbicidal pre-emergence action; details: 1280 g/ha, graded after ca. 3 weeks
Method in brief: as §2

[11] = test system: Alopecurus myosuroides (ALOMY); assay: Herbicidal post-emergence action; details: 1280 g/ha, assessed after ca. 3 weeks
Method in brief: as §1

Avena fatua (AVEFA) [12] = assay: Herbicidal post-emergence action; details: 1280 g/ha, assessed after ca. 3 weeks
Method in brief: as §1

[13] = test system: Digitaria sanguinalis (DIGSA); assay: Herbicidal post-emergence action; details: 320 g/ha, assessed after ca. 3 weeks
Method in brief: as §1

[14] = test system: Echinochloa crus-galli (ECHCG); assay: Herbicidal post-emergence action; details: 1280 g/ha, assessed after ca. 3 weeks
Method in brief: as §1

[15] = test system: Lolium multiflorum (LOLMU); assay: Herbicidal post-emergence action; details: 1280 g/ha, assessed after ca. 3 weeks
Method in brief: as §1

Lolium rigidum (LOLRI) [16] = assay: Herbicidal post-emergence action; details: 320 g/ha, assessed after ca. 3 weeks
Method in brief: as §1

Setaria viridis (SETVI) [17] = assay: Herbicidal post-emergence action; details: 1280 g/ha, assessed after ca. 3 weeks
Method in brief: as §1

Brassica napus (BRSNW) = assay: Post-emergence effects on crop plants; details: application rate 320 g/ha, crop plant Brassica napus (BRSNW)
Description: Seeds of mono- and dicotyledonous weed plants and crop plants were sown, in plastic or organic planting pots, in sandy loam, covered with soil and grown in a greenhouse under controlled growth conditions. 2 to 3 weeks after sowing, the test plants were sprayed in the single-leaf stage. The compounds according to the invention, formulated in form of wettable powders (WP) or as emulsifiable concentrates (EC), were sprayed onto the green plant parts as aqueous suspension or emulsion, with the addition of 0.5% of an additive, at an application rate of 600 1 of water/ha (converted). The test plants were placed in the greenhouse for ca. 3 weeks under optimum growth conditions, and then the effect of the preparations was assessed visually in comparison with untreated controls (herbicidal effect in percent (%): 100% effect=plants have died off, 0% effect=as control plants).
Tables D1 to D3 below show the effects of selected compounds of the general formula (I) according to table 1 on various crop plants and an application rate corresponding to 320 g/ha or below obtained by the experimental procedure mentioned above in biology section B.

[18] = test system: Cyperus esculentus (CYPES); assay: Herbicidal post-emergence action; details: 1280 g/ha, assessed after ca. 3 weeks
Method in brief: as §1

[19] = test system: Pharbitis purpurea (PHBPU); assay: Herbicidal pre-emergence action; details: 1280 g/ha, graded after ca. 3 weeks
Method in brief: as §2

Stellaria media (STEME) = assay: Herbicidal post-emergence action; details: 1280 g/ha, assessed after ca. 3 weeks
Method in brief: as §1

[20] = test system: Polygonum convolvulus (POLCO); assay: Herbicidal post-emergence action; details: 1280 g/ha, assessed after ca. 3 weeks
Method in brief: as §1

SMILES | Pre-emergence activity against ALOMY ([2]; 1280 g/ha) [%] | Pre-emergence activity against AVEFA (Avena fatua (AVEFA) [3]; 1280 g/ha) [%] | Pre-emergence activity against CYPES [4] [%] | Pre-emergence activity against ECHCG [6] [%] | Pre-emergence activity against LOLMU [7] [%] | Post-emergence activity against ALOMY [11] [%] | Post-emergence activity against AVEFA (Avena fatua (AVEFA) [12]) [%] | Post-emergence activity against ECHCG [14] [%] | Post-emergence activity against LOLMU [15] [%] | Post-emergence activity against SETVI (Setaria viridis (SETVI) [17]) [%] | Post-emergence activity against CYPES [18] [%] | Pre-emergence activity against POLCO ([9]; 1280 g/ha) [%] | also measured
O=C(CC1CCC(=O)N1Cc1cccc(F)c1F)NC1CCCc2ccccc21 (mixture of isomers) [Example I-066] | – | – | – | – | – | – | – | – | – | – | – | – | Post-emergence activity against AMARE [1]: 100%
O=C(O)CC1CCC(=O)N1Cc1cccc(Cl)c1F (racemic) [Example I-001, 2-[1-[(3-chloro-2-fluorophenyl)methyl]-5-oxo-pyrrolidin-2-yl]acetic acid] | 90 | 100 | 80 | 80 | 90 | 90 | 90 | 90 | 100 | 80 | – | – | Pre-emergence activity against ALOMY ([2]; 320 g/ha): 80%; Pre-emergence activity against AVEFA (Avena fatua (AVEFA) [3]; 320 g/ha): 100%; Pre-emergence activity against DIGSA [5]: 100%; Pre-emergence activity against LOLRI (Lolium rigidum (LOLRI) [8]): 90%; Pre-emergence activity against POLCO ([9]; 320 g/ha): 80%; Pre-emergence activity against SETVI (Setaria viridis (SETVI) [10]; 320 g/ha): 100%; Pre-emergence activity against VERPE (Veronica persica (VERPE)): 90%; Post-emergence activity against DIGSA [13]: 90%; Post-emergence activity against LOLRI (Lolium rigidum (LOLRI) [16]): 80%; post-emergence activity against BRSNW (Brassica napus (BRSNW)): 0%
CS(=O)(=O)NC(=O)CC1CCC(=O)N1Cc1cccc(F)c1F (racemic) [Example I-012] | 90 | 90 | 80 | 80 | 90 | 80 | 90 | 90 | 90 | 90 | 80 | – | Pre-emergence activity against SETVI (Setaria viridis (SETVI) [10]; 1280 g/ha): 90%
CC1(C)CCC(=O)C(C(=O)CC2CCC(=O)N2Cc2cccc(F)c2F)C1=O (racemic) [Example I-178] | 90 | 90 | – | 90 | – | – | 80 | 90 | – | – | – | 90 | Pre-emergence activity against PHBPU [19]: 90%; Post-emergence activity against AMARE [1]: 100%; Post-emergence activity against STEME (Stellaria media (STEME)): 80%
CC[C@H](C)[C@H](NC(=O)CC1CCC(=O)N1Cc1cccc(F)c1F)C(=O)O (single isomer, unassigned) [Example I-005] | 90 | 100 | – | 80 | 80 | 90 | 90 | 100 | 90 | 90 | 90 | 80 | Post-emergence activity against POLCO [20]: 80%
C=CCOC(=O)CC1CCC(=O)N1Cc1cccc(F)c1F (racemic) [Example I-021] | 90 | 100 | – | 80 | 90 | 80 | 80 | 90 | 90 | 90 | 80 | 80 | Pre-emergence activity against SETVI (Setaria viridis (SETVI) [10]; 1280 g/ha): 80%; Post-emergence activity against POLCO [20]: 80%
COCC(=O)CC(=O)CNC(=O)CC1CCC(=O)N1Cc1cccc(F)c1F (racemic) [Example I-006] | 90 | 100 | 90 | 90 | 90 | 90 | 100 | 100 | 80 | 80 | 80 | 90 | –
O=C(CC1CCC(=O)N1Cc1cccc(F)c1F)NCC(F)(F)F (racemic) [Example I-090] | – | – | – | – | – | – | – | – | – | – | – | – | Pre-emergence activity against PHBPU [19]: 100%
CC(C)CNC(=O)CC1CCC(=O)N1Cc1cccc(F)c1F (racemic) [Example I-056] | 80 | – | – | – | – | – | – | – | – | – | 80 | – | Pre-emergence activity against VERPE (Veronica persica (VERPE)): 100%
